From publication PMC10699586 (Journal of molecular biology, 2023)
Where a name gives a salt, the structure may show the parent alone.

Molecular target: T1, dysferlin C2A domain (dysf C2A) (Homo sapiens, UniProt O75923)
T1 sequence (O75923 1-129): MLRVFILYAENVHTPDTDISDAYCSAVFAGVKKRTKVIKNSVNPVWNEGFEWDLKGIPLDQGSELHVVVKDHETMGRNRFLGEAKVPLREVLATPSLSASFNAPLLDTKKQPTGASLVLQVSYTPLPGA
Assay: […]-TROSY NMR titration, single-site fast-exchange fit
Format: binding

O=P(O)(O)O[C@@H]1[C@H](O)[C@H](O)[C@@H](OP(=O)(O)O)[C@H](OP(=O)(O)O)[C@H]1O [IP3, D-myo-Inositol 1,4,5-tris-phosphate trisodium salt] showed a Kd of 12 to 15 µM.
